ChEMBL document CHEMBL6083210, “Exploring apoptotic induction of malabaricone A in triple-negative breast cancer cells: an acylphenol phyto-entity isolated from the fruit rind of Myristica malabarica Lam” (RSC Med Chem, 2024)
Activity calls are given as the source filed them. The rule behind the calls is not given here.

Tests used:
[1] = system: MDA-MB-231; assay: Induction of apoptosis in human MDA-MB-231 cells assessed as fold increase in caspase 8 level at 8 uM incubated for 24 hrs by fluorometric assay; format: functional
[2] = system: MDA-MB-231; assay: Induction of cell cycle arrest in human MDA-MB-231 cells assessed as accumulation of cells at G2 phase at 6 uM incubated for 24 hrs by PI staining based flow cytometry analysis (reference value: 7.9%); format: functional
[3] = system: SK-BR-3; assay: Antiproliferative activity against human SK-BR-3 cells assessed as reduction in cell viability incubated for 24 hrs by MTT assay; format: functional, cell-based; settings: SK-BR-3, 24 h
[4] = system: MDA-MB-231; assay: Upregulation of TNF-alpha protein level in human MDA-MB-231 cells at 8 uM measured after 24 hrs; format: functional, cell-based
[5] = system: MDA-MB-231; assay: Antiproliferative activity against human MDA-MB-231 cells assessed as reduction in cell viability incubated for 24 hrs by MTT assay; format: functional, cell-based; settings: MDA-MB-231, 24 h
[6] = system: MDA-MB-231; assay: Upregulation of Bad protein level in human MDA-MB-231 cells at 8 uM measured after 24 hrs; format: functional, cell-based
[7] = system: MDA-MB-231; assay: Induction of cell cycle arrest in human MDA-MB-231 cells assessed as accumulation of cells at G2 phase at 8 uM incubated for 24 hrs by PI staining based flow cytometry analysis (reference value: 7.9%); format: functional
[8] = system: MDA-MB-231; assay: Induction of apoptosis in human MDA-MB-231 cells assessed as viable cells at 10 uM incubated for 24 hrs by FITC annexin V staining based analysis (reference value: 90.5%); format: functional; settings: read-out: Activity
[9] = system: MDA-MB-231; assay: Induction of apoptosis in human MDA-MB-231 cells assessed as viable cells at 6 uM incubated for 24 hrs by FITC annexin V staining based analysis (reference value: 90.5%); format: functional; settings: read-out: Activity
[10] = system: MDA-MB-231; assay: Induction of apoptosis in human MDA-MB-231 cells assessed as early apoptotic cells at 10 uM incubated for 24 hrs by FITC annexin V staining based analysis (reference value: 1.4%); format: functional
[11] = system: MDA-MB-231; assay: Downregulation of Cdk2 level in human MDA-MB-231 cells at 6 to 10 uM by Western blot analysis; format: functional, cell-based; settings: dose 6-10 µM
[12] = system: MDA-MB-231; assay: Upregulation of caspase 8 protein level in human MDA-MB-231 cells at 8 uM measured after 24 hrs; format: functional, cell-based
[13] = system: MDA-MB-231; assay: Induction of apoptosis in human MDA-MB-231 cells assessed as early apoptotic cells at 8 uM incubated for 24 hrs by FITC annexin V staining based analysis (reference value: 1.4%); format: functional
[14] = system: MDA-MB-231; assay: Upregulation of caspase 3 protein level in human MDA-MB-231 cells at 8 uM measured after 24 hrs; format: functional, cell-based
[15] = system: MDA-MB-231; assay: Upregulation of FasL protein level in human MDA-MB-231 cells at 8 uM measured after 24 hrs; format: functional, cell-based
[16] = system: MDA-MB-231; assay: Induction of cell cycle arrest in human MDA-MB-231 cells assessed as accumulation of cells at G1 phase at 8 uM incubated for 24 hrs by PI staining based flow cytometry analysis (reference value: 74.2%); format: functional
[17] = system: MDA-MB-231; assay: Upregulation of TNF-beta protein level in human MDA-MB-231 cells at 8 uM measured after 24 hrs; format: functional, cell-based
[18] = system: MDA-MB-231; assay: Induction of morphological changes in human MDA-MB-231 cells assessed as membrane blebbing at 6 to 10 uM measured 24 hrs by EtBr-AO Live dead Assay; format: functional, cell-based; settings: dose 6-10 µM
[19] = system: MDA-MB-231; assay: Induction of apoptosis in human MDA-MB-231 cells assessed as necrotic cells at 8 uM incubated for 24 hrs by FITC annexin V staining based analysis (reference value: 0.8%); format: functional
[20] = system: MDA-MB-231; assay: Induction of DNA fragmentation in human MDA-MB-231 cells assessed as appearance of ladder-like pattern at 6 to 10 uM; format: functional, cell-based; settings: dose 6-10 µM
[21] = system: MDA-MB-231; assay: Induction of cell cycle arrest in human MDA-MB-231 cells assessed as accumulation of cells at G1 phase at 6 uM incubated for 24 hrs by PI staining based flow cytometry analysis (reference value: 74.2%); format: functional
[22] = system: MDA-MB-231; assay: Upregulation of Fas protein level in human MDA-MB-231 cells at 8 uM measured after 24 hrs; format: functional, cell-based
[23] = system: MDA-MB-231; assay: Induction of apoptosis in human MDA-MB-231 cells assessed as necrotic cells at 10 uM incubated for 24 hrs by FITC annexin V staining based analysis (reference value: 0.8%); format: functional
[24] = system: MDA-MB-231; assay: Induction of apoptosis in human MDA-MB-231 cells assessed as increase in green fluorescence at 6 to 10 uM by acridine orange and ethidium bromide dual staining based analysis; format: functional, cell-based; settings: dose 6-10 µM, time 12-48 hrs
[25] = system: MDA-MB-231; assay: Induction of morphological changes in human MDA-MB-231 cells assessed as decrease in cell number at 15 uM measured upto 18 hrs by acridine orange and ethidium bromide dual staining based inverted microscopic analysis; format: functional
[26] = system: MDA-MB-231; assay: Induction of apoptosis in human MDA-MB-231 cells assessed as fold increase in caspase 3 level at 8 uM by fluorometric assay; format: functional
[27] = system: MDA-MB-231; assay: Antiproliferative activity against human MDA-MB-231 cells assessed as reduction in cell viability at 1 to 50 uM by MTT assay; format: functional, cell-based; settings: dose 1-50 µM, time 12-48 hrs
[28] = system: MCF-10A; assay: Antiproliferative activity against human MCF-10A cells assessed as reduction in cell viability incubated for 24 hrs by MTT assay; format: functional, cell-based
[29] = system: MDA-MB-231; assay: Downregulation of cyclin B1 level in human MDA-MB-231 cells at 6 to 10 uM by Western blot analysis; format: functional, cell-based; settings: dose 6-10 µM

IC50 [3]: 8.39 µM
IC50 [5]: 8.81 µM
Structure (SMILES): O=C(CCCCCCCCc1ccccc1)c1c(O)cccc1O [MALABARICONE A]
fold change (FC) [1]: 2.4
Activity [2]: 3.9%
Activity [4]: Active
Activity [6]: Active
Activity [7]: 2.9%
viability at 10 µM [8]: 32.4%
viability at 6 µM [9]: 68.5%
Activity [10]: 4.25%
Activity [11]: Active
Activity [12]: Active
Activity [13]: 6.45%
Activity [14]: Active
Activity [15]: Active
Activity [16]: 27.5%
Activity [17]: Active
Activity [18]: Active
Activity [19]: 8.05%
Activity [20]: Active
Activity [21]: 36.8%
Activity [22]: Active
Activity [23]: 12.7%
Activity [24]: Time-dependent-effect
Activity [25]: Active
fold change (FC) [26]: 8.9
Activity [27]: Time-dependent-effect
IC50 [28]: 68.9 µM
Activity [29]: Active
